Measured values from article PMC5923142, “Selection and Characterization of Rupintrivir-Resistant Norwalk Virus Replicon Cells In Vitro” (Antimicrobial Agents and Chemotherapy, 2018).
Where a chain is given by its changes, count along the chain named. “Also recorded” adds a separate entry of the source.

Key:
[1] = tested on: HRV2 N165T/E3G or N165T/A103V; parameters: method as in PMID 17908951; conditions: serial passage of HRV2 for 62 days; cited from earlier work
[2] = target: T1, MNV WT protease (polyprotein) (Norovirus, UniProt Q80J95); assay: In vitro translation, MNV polyprotein processing, WT protease; format: biochemical, murine norovirus; conditions: 80 μM, rabbit reticulocyte lysate
T1 construct: in vitro-transcribed MNV full-length capped RNA containing either the WT or mutant proteases; made in house; host or cells: rabbit reticulocyte lysate (Flexi system, Promega), in vitro translation
Experimental: (§1) FIG 4 Impact of rupintrivir resistance-conferring mutations on MNV polyprotein processing in vitro. In vitro translation reactions were programmed with equal quantities of in vitro-transcribed MNV full-length capped RNA containing either the WT or mutant proteases in the presence and absence of 80 μM rupintrivir. The [^35S]methionine-labeled products were subsequently analyzed by SDS-PAGE and phosphorimaging analysis. The percentage of fully processed NS3, determined on the basis of the expected molecular mass of the proteins, was calculated and expressed relative to the total amount of viral protein produced.
(§2) In vitro translation reactions were performed using a Flexi rabbit reticulocyte lysate system (Promega). The reaction mixtures were prepared according to the manufacturer's instructions as described for capped mRNAs and programmed with 1 μg of RNA per 25-μl reaction mixture. The reaction mixtures were incubated at 30°C for 90 min prior to the addition of an equal volume of SDS-PAGE sample buffer. Samples were subsequently resolved on a 12.5% SDS-polyacrylamide gel before exposure to a phosphorimager screen.

GI I109V mutant protease = target: T2, GI I109V mutant protease (Norovirus, UniProt Q83883, I1209V); assay: Cell-based FRET assay, GI I109V protease; parameters: species or system norovirus GI.1 (M87661)
T2 construct: plasmids expressing norovirus protease from GI.1 (M87661); expressed in transfected cells; host or cells: HEK293T
T2 sequence (Q83883 1101-1281 I1209V): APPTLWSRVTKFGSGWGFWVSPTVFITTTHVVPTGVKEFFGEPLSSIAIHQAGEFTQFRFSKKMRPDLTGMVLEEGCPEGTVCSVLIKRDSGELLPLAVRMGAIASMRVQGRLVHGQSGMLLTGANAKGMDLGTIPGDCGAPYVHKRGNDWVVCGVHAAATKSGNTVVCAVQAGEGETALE
Source text: (§3) The generation of plasmids expressing norovirus protease from GI.1 (M87661), GII.4 (DQ658413), or GV (DQ285629) norovirus and FRET assay constructs has been described previously ([18]). The plasmids carrying GI, GII, and GV proteases with the A105V, I109V, or A105V/I109V mutation were generated from the wild-type (WT) protease constructs described above by the QuikChange site-directed mutagenesis method. Mutant MNV genomes for reverse genetics were generated by two-step PCR mutagenesis of the WT MNV genome (pT7 MNV 3RZ) construct as described previously ([27]). The primers used for generation of the plasmids are listed in Tables S1 and S2 in the supplemental material.
(§4) The YFP/CFP ratio was used to determine FRET efficiency, as described previously ([18], [40]). Briefly, HEK293T cells were plated into black 96-well cell culture microplates (Greiner Bio-One) at a density of 5 × 10^4 cells/well in 100 μl of DMEM containing 10% fetal bovine serum with or without various concentrations of rupintrivir and then incubated for 4 h in a CO2 incubator at 37°C. […] The plates were then analyzed on a SpectraMax i3 instrument in fluorescence mode, with excitation set at 434 nm and the reading emissions set at 477 nm (CFP) and 527 nm (YFP). The background fluorescence from wells transfected with pcDNA3.1 was determined and subtracted. […]

GV WT protease = target: T3, GV WT protease (Norovirus, UniProt Q80J95); assay: Cell-based FRET assay, GV WT protease; parameters: species or system murine norovirus (MNV) GV (DQ285629); conditions: HEK293T cells, GV NS1/2-NS3 FRET substrate
T3 construct: plasmids expressing norovirus protease from GI.1 (M87661), GII.4 (DQ658413), or GV (DQ285629) norovirus; expressed in transfected cells; host or cells: HEK293T
T3 sequence (Q80J95 995-1177 limits assumed): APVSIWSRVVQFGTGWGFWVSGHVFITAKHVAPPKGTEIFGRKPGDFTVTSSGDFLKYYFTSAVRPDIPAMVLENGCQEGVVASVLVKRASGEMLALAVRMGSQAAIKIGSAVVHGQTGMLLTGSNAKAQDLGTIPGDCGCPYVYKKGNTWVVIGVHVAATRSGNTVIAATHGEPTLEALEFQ
Source text: as §3, §4

GV A105V protease = target: T4, GV A105V protease (Norovirus, UniProt Q80J95, A1099V); assay: Cell-based FRET assay, GV A105V protease; parameters: species or system murine norovirus (MNV) GV (DQ285629); conditions: GV A105V vs GV WT
T4 construct: plasmids expressing norovirus protease from GI.1 (M87661), GII.4 (DQ658413), or GV (DQ285629) norovirus; expressed in transfected cells; host or cells: HEK293T
T4 sequence (Q80J95 995-1177 A1099V): T3 sequence (Q80J95 995-1177 limits assumed) with A105V
Source text: as §3, §4

[3] = target: T5, GI A105V/I109V mutant protease (Norovirus, UniProt Q83883, A1205V/I1209V); assay: Cell-based FRET assay, GI A105V/I109V protease; parameters: species or system norovirus GI.1 (M87661)
T5 construct: plasmids expressing norovirus protease from GI.1 (M87661); expressed in transfected cells; host or cells: HEK293T
T5 sequence (Q83883 1101-1281 A1205V/I1209V): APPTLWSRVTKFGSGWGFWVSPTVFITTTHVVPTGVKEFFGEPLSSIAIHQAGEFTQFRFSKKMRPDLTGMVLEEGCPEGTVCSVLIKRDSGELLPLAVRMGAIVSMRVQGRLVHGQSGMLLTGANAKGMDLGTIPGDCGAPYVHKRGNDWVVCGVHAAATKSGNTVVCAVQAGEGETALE
Source text: as §3, §4

[4] = target: T6, MNV I109V protease (polyprotein) (Norovirus, UniProt Q80J95, I1103V); assay: In vitro translation, MNV polyprotein processing, I109V protease; format: biochemical, murine norovirus; conditions: 80 μM, rabbit reticulocyte lysate
T6 construct: in vitro-transcribed MNV full-length capped RNA containing either the WT or mutant proteases; made in house; host or cells: rabbit reticulocyte lysate (Flexi system, Promega), in vitro translation
Experimental: as §1, §2

Norwalk virus replicon = assay: Colony formation assay with HGT-NV cells after 12 days of treatment; format: cell-based, Human norovirus (HuNoV) GI; conditions: then 1 week G418 1.5 mg/ml without drug
Experimental: HGT-NV cells treated with rupintrivir or DMSO for 12 days in the absence of G418 were plated into 6-well plates in complete DMEM and maintained without rupintrivir in the presence of G418 (1.5 mg/ml). After 1 week of incubation, the colonies on the plate were stained with 0.1% toluidine blue and photographed.

GII mutant proteases = assay: Cell-based FRET assay, GII mutant proteases (A105V, I109V, A105V/I109V); parameters: species or system norovirus GII.4 (DQ658413); conditions: A105V/I109V vs GII WT, HEK293T cells
Source text: as §3, §4

[5] = HEK293T cells, GI NS1/2-NS3 FRET substrate

Compound: CCOC(=O)/C=C/[C@H](C[C@@H]1CCNC1=O)NC(=O)[C@@H](CC(=O)[C@@H](NC(=O)c1cc(C)on1)C(C)C)Cc1ccc(F)cc1 [rupintrivir, Rupintrivir]
- fold reduced susceptibility [1]: 5 fold
- polyprotein processing (mature NS3) [2]: prevented the cleavage of the polyprotein
- IC50 (GI I109V mutant protease; [5]): 4 ± 0.4 µM
- fold increase in IC50 (GI I109V mutant protease; vs GI WT protease): 3.1 fold
- IC50 (GV WT protease): 1 ± 0.1 µM
- impact of substitution on susceptibility (GV A105V protease): no appreciable impact
- IC50 [3, 5]: 6.6 ± 1.2 µM
- fold increase in IC50 ([3]; vs GI WT protease): 5.1 fold
- polyprotein processing (mature NS3) [4]: still able to produce mature NS3
- colony formation (Norwalk virus replicon; 2.5 μM for 12 days): some colonies remained
- colony formation (Norwalk virus replicon; 5 μM for 12 days): some colonies remained
- colony formation (Norwalk virus replicon; 10 μM for 12 days): completely prevent colony formation
- effect of substitutions on the IC50 (GII mutant proteases): no measurable effect; also recorded: no significant differences
